Assay results: patent US20200172529A1, “Chemical Compound, Pharmaceutical Composition Thereof, and Use and Application Thereof” (Beijing Hanmi Pharm. Co., Ltd., priority 2017, published 2020)

Columns and labels:
Format in all cases: biochemical
TYK2 kinase = molecular target: T1, TYK2 kinase (Homo sapiens, UniProt P29597); test: Inhibition assay of TYK2 kinase activity (ADP-Glo Kinase Assay)
T1 construct: purchased Life Technologies PR8440C
Description: Determination of inhibition of TYK2 kinase activity by the examples compounds disclosed herein
Inhibition assay of TYK2 kinase activity: the method of ADP-Glo™ Kinase Assay (Promega, V9102) was used to determine the inhibitory activity of the test compounds against TYK2 kinase.
TYK2 kinase (purchased from Life Technologies, article number: PR8440C) was diluted to the 2-fold final concentration (0.8 ng/mL) using reaction buffer (40 mM Tris-HCl, pH 7.5; 20 mM MgCl2; 0.1 mg/mL BSA; 1 mM DTT), and added to a 384-well plate at 5 μL/well. The test drugs were subjected to a 10-fold gradient dilution, from 10 μM, to obtain 6 concentrations, and added to experimental wells of the 384-well plate at 2.5 μL/well. 5 μL of water and 2.5 μL of buffer were added to negative control wells. 5 μL of TYK2 and 2.5 μL of water were added to positive control wells. After incubating for 10 minutes at room temperature, the substrate ATP and polyE4Y1 (Sigma, P0275) were added at 2.5 μL/well, mixed well, and then reacted at room temperature for 60 minutes. After the reaction was completed, the kinase activity was detected according to the instruction of the kit. First, the ADP-Glo reaction reagent was added at 10 μL/well, mixed well, and reacted at room temperature for 40 minutes. The kinase detection reagent was then added at 20 μL/well, mixed well, and then reacted at room temperature for 30 minutes. The detection was then performed and the IC50s of test drugs were calculated.

JAK3 kinase = molecular target: T2, JAK3 kinase (Homo sapiens, UniProt P52333); test: Inhibition assay of JAK3 kinase activity (ADP-Glo Kinase Assay)
T2 sequence (P52333 1-1124): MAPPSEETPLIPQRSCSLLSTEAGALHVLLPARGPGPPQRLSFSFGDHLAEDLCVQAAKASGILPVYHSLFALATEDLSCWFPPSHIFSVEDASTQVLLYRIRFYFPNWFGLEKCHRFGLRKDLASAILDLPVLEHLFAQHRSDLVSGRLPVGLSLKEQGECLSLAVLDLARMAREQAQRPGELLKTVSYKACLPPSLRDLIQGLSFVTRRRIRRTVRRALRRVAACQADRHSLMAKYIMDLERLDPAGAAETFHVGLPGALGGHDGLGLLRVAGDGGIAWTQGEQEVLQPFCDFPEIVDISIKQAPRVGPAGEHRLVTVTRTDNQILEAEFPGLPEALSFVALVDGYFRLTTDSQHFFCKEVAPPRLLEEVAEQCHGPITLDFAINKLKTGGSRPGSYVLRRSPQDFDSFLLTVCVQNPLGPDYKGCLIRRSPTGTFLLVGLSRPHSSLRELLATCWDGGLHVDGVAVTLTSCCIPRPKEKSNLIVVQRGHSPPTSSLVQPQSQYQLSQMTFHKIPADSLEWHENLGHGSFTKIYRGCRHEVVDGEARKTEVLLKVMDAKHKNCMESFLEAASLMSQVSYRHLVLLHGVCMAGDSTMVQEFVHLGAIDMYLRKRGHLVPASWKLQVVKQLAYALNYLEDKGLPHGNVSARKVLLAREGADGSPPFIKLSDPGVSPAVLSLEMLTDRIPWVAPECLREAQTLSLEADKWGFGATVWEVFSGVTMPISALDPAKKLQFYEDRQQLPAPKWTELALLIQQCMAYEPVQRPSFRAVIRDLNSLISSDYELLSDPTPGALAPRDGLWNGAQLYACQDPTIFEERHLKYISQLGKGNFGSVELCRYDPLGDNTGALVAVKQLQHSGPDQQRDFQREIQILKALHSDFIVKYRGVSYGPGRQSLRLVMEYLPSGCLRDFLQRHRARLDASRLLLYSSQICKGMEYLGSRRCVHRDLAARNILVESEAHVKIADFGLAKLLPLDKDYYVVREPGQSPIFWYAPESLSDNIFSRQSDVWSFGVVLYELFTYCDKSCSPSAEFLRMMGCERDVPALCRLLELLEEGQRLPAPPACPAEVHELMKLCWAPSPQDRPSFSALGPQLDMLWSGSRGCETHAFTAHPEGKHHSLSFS
Description: Inhibition assay of JAK3 kinase activity: the method in ADP-Glo™ Kinase Assay (Promega, V9102) was used to determine the inhibitory activity of the test compounds against JAK3 kinase.

JAK1 kinase = JAK1 kinase (Homo sapiens, UniProt P23458); test: Inhibition assay of JAK1 kinase activity (ADP-Glo Kinase Assay)
JAK1 kinase, sequence (P23458 whole entry): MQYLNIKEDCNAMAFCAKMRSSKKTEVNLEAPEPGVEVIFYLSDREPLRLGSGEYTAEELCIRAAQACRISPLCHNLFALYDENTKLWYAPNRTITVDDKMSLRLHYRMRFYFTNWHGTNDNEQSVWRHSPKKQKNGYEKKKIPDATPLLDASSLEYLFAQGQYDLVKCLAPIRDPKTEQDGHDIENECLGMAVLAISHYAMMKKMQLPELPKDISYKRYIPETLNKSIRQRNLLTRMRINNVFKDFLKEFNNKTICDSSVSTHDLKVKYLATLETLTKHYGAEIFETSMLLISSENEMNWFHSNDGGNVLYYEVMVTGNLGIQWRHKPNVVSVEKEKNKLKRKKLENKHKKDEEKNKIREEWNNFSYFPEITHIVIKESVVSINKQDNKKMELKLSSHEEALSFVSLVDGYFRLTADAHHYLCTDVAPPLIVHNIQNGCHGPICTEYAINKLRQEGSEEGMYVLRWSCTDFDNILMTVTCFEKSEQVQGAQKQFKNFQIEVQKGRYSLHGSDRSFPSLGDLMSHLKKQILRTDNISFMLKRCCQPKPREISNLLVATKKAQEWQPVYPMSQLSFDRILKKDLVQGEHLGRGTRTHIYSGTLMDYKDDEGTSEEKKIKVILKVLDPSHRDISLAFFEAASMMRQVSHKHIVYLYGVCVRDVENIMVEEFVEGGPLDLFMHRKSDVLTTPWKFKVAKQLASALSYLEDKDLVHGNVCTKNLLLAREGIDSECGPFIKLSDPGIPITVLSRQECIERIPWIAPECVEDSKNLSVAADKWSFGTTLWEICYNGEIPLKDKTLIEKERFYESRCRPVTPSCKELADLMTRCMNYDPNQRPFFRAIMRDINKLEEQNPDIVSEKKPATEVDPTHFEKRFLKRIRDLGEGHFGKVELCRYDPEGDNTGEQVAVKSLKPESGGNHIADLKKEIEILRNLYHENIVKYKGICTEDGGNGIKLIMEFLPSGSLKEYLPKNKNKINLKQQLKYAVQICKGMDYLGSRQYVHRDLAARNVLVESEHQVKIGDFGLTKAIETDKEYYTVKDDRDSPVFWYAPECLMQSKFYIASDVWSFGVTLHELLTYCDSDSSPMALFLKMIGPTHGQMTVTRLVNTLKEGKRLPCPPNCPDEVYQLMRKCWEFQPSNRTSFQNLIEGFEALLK
Description: Inhibition assay of JAK1 kinase activity: the method in ADP-Glo™ Kinase Assay (Promega, V9102) was used to determine the inhibitory activity of the test compounds against JAK1 kinase.

JAK2 kinase = JAK2 kinase (Homo sapiens, UniProt O60674); test: Inhibition assay of JAK2 kinase activity (ADP-Glo Kinase Assay)
JAK2 kinase, sequence (O60674 whole entry): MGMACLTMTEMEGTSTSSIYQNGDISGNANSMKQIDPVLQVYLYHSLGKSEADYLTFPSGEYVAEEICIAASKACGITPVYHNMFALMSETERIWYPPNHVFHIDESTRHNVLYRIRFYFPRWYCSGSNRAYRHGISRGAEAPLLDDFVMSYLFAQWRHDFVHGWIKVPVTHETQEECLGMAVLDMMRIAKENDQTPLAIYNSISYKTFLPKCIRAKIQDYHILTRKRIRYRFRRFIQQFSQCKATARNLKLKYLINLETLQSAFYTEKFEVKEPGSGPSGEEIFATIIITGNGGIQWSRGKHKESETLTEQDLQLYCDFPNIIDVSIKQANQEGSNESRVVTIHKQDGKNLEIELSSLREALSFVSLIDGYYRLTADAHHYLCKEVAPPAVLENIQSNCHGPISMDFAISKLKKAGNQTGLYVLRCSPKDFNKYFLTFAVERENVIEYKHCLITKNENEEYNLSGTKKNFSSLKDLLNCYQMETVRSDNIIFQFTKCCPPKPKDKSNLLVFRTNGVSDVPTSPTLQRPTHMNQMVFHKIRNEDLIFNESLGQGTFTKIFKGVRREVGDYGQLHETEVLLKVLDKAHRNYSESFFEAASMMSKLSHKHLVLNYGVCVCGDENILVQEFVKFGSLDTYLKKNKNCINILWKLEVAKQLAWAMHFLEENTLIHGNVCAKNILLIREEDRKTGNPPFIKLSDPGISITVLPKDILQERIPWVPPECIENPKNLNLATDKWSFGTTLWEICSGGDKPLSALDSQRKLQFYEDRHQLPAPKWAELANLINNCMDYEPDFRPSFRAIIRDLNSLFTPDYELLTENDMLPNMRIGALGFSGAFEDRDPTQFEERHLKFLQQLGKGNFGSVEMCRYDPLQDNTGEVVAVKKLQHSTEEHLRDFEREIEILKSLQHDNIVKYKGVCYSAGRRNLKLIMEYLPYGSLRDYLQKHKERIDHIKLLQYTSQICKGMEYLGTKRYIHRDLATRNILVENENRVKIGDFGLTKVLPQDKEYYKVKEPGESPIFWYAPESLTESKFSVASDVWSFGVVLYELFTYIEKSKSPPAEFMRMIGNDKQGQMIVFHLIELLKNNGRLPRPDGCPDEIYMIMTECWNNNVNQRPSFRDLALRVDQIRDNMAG
Description: Inhibition assay of JAK2 kinase activity: the method in ADP-Glo™ Kinase Assay (Promega, V9102) was used to determine the inhibitory activity of the test compounds against JAK2 kinase.

T1 sequence (P29597 whole entry): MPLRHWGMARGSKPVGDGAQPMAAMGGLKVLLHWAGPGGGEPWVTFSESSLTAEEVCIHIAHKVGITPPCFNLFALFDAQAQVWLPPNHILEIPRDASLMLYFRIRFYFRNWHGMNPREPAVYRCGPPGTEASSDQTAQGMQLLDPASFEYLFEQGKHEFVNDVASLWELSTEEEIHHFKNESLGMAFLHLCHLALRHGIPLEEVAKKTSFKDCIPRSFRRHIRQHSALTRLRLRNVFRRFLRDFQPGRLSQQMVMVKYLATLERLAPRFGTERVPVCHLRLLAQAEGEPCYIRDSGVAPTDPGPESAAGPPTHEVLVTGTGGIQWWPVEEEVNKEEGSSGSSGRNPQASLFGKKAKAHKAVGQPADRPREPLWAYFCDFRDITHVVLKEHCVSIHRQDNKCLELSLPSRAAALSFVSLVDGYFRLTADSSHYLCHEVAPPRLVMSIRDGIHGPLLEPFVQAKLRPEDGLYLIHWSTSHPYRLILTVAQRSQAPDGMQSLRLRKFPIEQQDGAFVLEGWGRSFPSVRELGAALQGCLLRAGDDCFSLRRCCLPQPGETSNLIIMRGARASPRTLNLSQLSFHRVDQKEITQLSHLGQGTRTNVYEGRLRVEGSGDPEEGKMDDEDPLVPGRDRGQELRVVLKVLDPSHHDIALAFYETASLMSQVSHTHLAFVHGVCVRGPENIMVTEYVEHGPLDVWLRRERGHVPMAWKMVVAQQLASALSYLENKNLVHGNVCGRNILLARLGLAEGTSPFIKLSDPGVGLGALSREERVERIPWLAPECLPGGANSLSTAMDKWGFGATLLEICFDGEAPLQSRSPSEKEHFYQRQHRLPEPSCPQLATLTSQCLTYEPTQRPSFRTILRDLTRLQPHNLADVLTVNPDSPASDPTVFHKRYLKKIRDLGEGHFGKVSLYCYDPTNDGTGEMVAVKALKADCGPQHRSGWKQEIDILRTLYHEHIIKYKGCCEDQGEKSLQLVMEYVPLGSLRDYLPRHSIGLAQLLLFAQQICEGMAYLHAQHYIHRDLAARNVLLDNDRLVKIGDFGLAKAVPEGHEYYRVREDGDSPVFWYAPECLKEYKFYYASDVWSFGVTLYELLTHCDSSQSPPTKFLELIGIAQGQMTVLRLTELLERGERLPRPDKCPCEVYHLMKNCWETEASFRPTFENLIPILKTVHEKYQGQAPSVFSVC

Row | IC50 (TYK2 kinase) | IC50 (JAK1 kinase) | IC50 (JAK2 kinase) | Compound | IC50 (JAK3 kinase)
1 | < 0.01 µM | – | – | NC(=O)c1cnc(Nc2ccc3c(c2)NCCCO3)nc1NC1CC1 [Example 77, 4-(cyclopropylamino)-2-((2,3,4,5-tetrahydrobenzo[b][1,4]oxazepin-7-yl)amino)pyrimidin-5-carboxamide] | 0.01 to 0.1 µM
2 | < 0.01 µM | < 0.01 µM | < 0.01 µM | NC(=O)c1cnc(Nc2ccc3c(c2)NC[C@H](O)CO3)nc1NC1CC1 [Example 26, (S)-4-(cyclopropylamino)-2-((3-hydroxy-2,3,4,5-tetrahydro-benzo[b][1,4]oxazepin-7-yl)amino)pyrimidin-5-carboxamide] | –
3 | < 0.01 µM | < 0.01 µM | 0.01 to 0.1 µM | CO[C@H]1CNc2cc(Nc3ncc(C(N)=O)c(NC4CC4)n3)ccc2OC1 [Example 27, (S)-4-(cyclopropylamino)-2-((3-methoxy-2,3,45-tetrahydro-benzo[b][1,4]oxazepin-7-yl)amino)pyrimidin-5-carboxamide] | –
4 | < 0.01 µM | < 0.01 µM | 0.01 to 0.1 µM | NC(=O)c1cnc(Nc2ccc3c(c2)NCC(O)CO3)nc1NCc1ccccc1 (centres unmarked) [Example 9, 4-(benzylamino)-2-((3-hydroxy-2,3,4,5-tetrahydro-benzo[b][1,4]oxazepin-7-yl)amino)pyrimidin-5-carboxamide] | –
5 | < 0.01 µM | < 0.01 µM | < 0.01 µM | NC(=O)c1cnc(Nc2ccc3c(c2)NC[C@H](O)CO3)nc1NCCCCO [Example 48, 4-((4-hydroxybutyl)amino)-2-(((S)-2,3,4,5-tetrahydro-3-hydroxybenzo[b][1,4]oxazepin-7-yl)amino)pyrimidin-5-carboxamide] | –
6 | 0.01 to 0.1 µM | 0.01 to 0.1 µM | 0.01 to 0.1 µM | CCCO[C@@H]1CNc2cc(Nc3ncc(C(N)=O)c(NC4CC4)n3)ccc2OC1 [Example 84, 4-(cyclopropylamino)-2-(((R)-2,3,4,5-tetrahydro-3-propoxybenzo[b][1,4]oxazepin-7-yl)amino)pyrimidin-5-carboxamide] | –
7 | < 0.01 µM | < 0.01 µM | < 0.01 µM | NC(=O)c1cnc(Nc2ccc3c(c2)NC[C@H](O)CO3)nc1NC12CC3CC(C1)C(O)C(C3)C2 (stereo partly drawn) [Example 49, 4-((4-hydroxyadamantan-1-yl)amino)-2-(((S)-2,3,4,5-tetrahydro-3-hydroxybenzo[b][1,4]oxazepin-7-yl)amino)pyrimidin-5-carboxamide] | –
8 | < 0.01 µM | 0.01 to 0.1 µM | – | CNc1nc(Nc2ccc3c(c2)NC[C@H](O)CO3)ncc1C(N)=O [Example 47, 4-(methylamino)-2-(((S)-2,3,4,5-tetrahydro-3-hydroxybenzo[b][1,4]oxazepin-7-yl)amino)pyrimidin-5-carboxamide] | –
9 | 0.01 to 0.1 µM | 0.01 to 0.1 µM | – | NC(=O)c1cnc(Nc2ccc3c(c2)NC[C@H](O)CO3)nc1NCCCN1CCOCC1 [Example 62, 4-((3-morpholinopropyl)amino)-2-(((S)-2,3,4,5-tetrahydro-3-hydroxybenzo[b][1,4]oxazepin-7-yl)amino)pyrimidin-5-carboxamide] | –
10 | < 0.01 µM | 0.01 to 0.1 µM | – | NC(=O)c1cnc(Nc2ccc3c(c2)NCC(O)CO3)nc1NCc1cccnc1 (centres unmarked) [Example 14, 4-((pyridin-3-ylmethyl)amino)-2-((3-hydroxy-2,3,4,5-tetrahydro-benzo[b][1,4]oxazepin-7-yl)amino)pyrimidin-5-carboxamide] | –
11 | < 0.01 µM | 0.01 to 0.1 µM | – | N#CCC(=O)N1CCC(Nc2nc(Nc3ccc4c(c3)NC[C@H](O)CO4)ncc2C(N)=O)C1 (stereo partly drawn) [Example 42, 4-((1-(2-cyanoacetyl)pyrrolidin-3-yl)amino)-2-(((S)-2,3,4,5-tetrahydro-3-hydroxybenzo[b][1,4]oxazepin-7-yl)amino)pyrimidin-5-carboxamide] | –
12 | 0.01 to 0.1 µM | 0.01 to 0.1 µM | – | NC(=O)c1cnc(Nc2ccc3c(c2)NC[C@H](O)CO3)nc1NC1CNC1 [Example 58, 4-(azetidin-3-ylamino)-2-(((S)-2,3,4,5-tetrahydro-3-hydroxybenzo[b][1,4]oxazepin-7-yl)amino)pyrimidin-5-carboxamide] | –
13 | < 0.01 µM | 0.01 to 0.1 µM | 0.01 to 0.1 µM | NC(=O)c1cnc(Nc2ccc3c(c2)NCC(O)CO3)nc1NCC(F)(F)F (centres unmarked) [Example 7, 4-((2,2,2-trifluoroethyl)amino)-2-((3-hydroxy-2,3,4,5-tetrahydro-benzo[b][1,4]oxazepin-7-yl)amino)pyrimidin-5-carboxamide] | –
14 | < 0.01 µM | < 0.01 µM | – | NC(=O)c1cnc(Nc2ccc3c(c2)NC[C@H](O)CO3)nc1NC12CC3CC(CC(O)(C3)C1)C2 [Example 43, 4-((1-hydroxyadamantan-3-yl)amino)-2-(((S)-2,3,4,5-tetrahydro-3-hydroxybenzo[b][1,4]oxazepin-7-yl)amino)pyrimidin-5-carboxamide] | –
15 | 0.01 to 0.1 µM | 0.01 to 0.1 µM | – | NC(=O)c1cnc(Nc2ccc3c(c2)NCC(O)CO3)nc1NC12CC3CC(CC(C3)C1)C2 (centres unmarked) [Example 5, 4-((adamantanyl-1-yl)amino)-2-((3-hydroxy-2,3,4,5-tetrahydro-benzo[b][1,4]oxazepin-7-yl)amino)pyrimidin-5-carboxamide] | –
16 | < 0.01 µM | < 0.01 µM | – | NC(=O)c1cnc(Nc2ccc3c(c2)NC[C@H](O)CO3)nc1NCc1ccnc2[nH]ccc12 [Example 41, 4-(((1H-pyrrolo[2,3-b]pyridin-4-yl)methyl)amino)-2-(((S)-2,3,4,5-tetrahydro-3-hydroxybenzo[b][1,4]oxazepin-7-yl)amino)pyrimidin-5-carboxamide] | –
17 | < 0.01 µM | 0.01 to 0.1 µM | – | NC(=O)c1cnc(Nc2ccc3c(c2)NC[C@H](O)CO3)nc1NC1CC(O)C1 (stereo partly drawn) [Example 36, 4-((3-hydroxycyclobutyl)amino)-2-(((S)-2,3,4,5-tetrahydro-3-hydroxybenzo[b][1,4]oxazepin-7-yl)amino)pyrimidin-5-carboxamide] | –
18 | < 0.01 µM | 0.01 to 0.1 µM | – | NC(=O)c1cnc(Nc2ccc3c(c2)NCC(O)CO3)nc1NC1CCOCC1 (centres unmarked) [Example 6, 4-((tetrahydropyran-4-yl)amino)-2-((3-hydroxy-2,3,4,5-tetrahydro-benzo[b][1,4]oxazepin-7-yl)amino)pyrimidin-5-carboxamide] | –
19 | < 0.01 µM | 0.01 to 0.1 µM | – | NC(=O)c1cnc(Nc2ccc3c(c2)NC[C@H](O)CO3)nc1Nc1cccc(-c2nc[nH]n2)c1 [Example 35] | –
20 | < 0.01 µM | 0.01 to 0.1 µM | – | Cc1cccc(Nc2nc(Nc3ccc4c(c3)NCC(O)CO4)ncc2C(N)=O)c1 (centres unmarked) [Example 17, 4-((3-methylphenyl)amino)-2-((3-hydroxy-2,3,4,5-tetrahydro-benzo[b][1,4]oxazepin-7-yl)amino)pyrimidin-5-carboxamide] | –

Row | Compound | IC50 (TYK2 kinase) | IC50 (JAK1 kinase) | IC50 (JAK2 kinase) | IC50 (JAK3 kinase)
21 | CCCCO[C@H]1CNc2cc(Nc3ncc(C(N)=O)c(NC4CC4)n3)ccc2OC1 [Example 81, 4-(cyclopropylamino)-2-(((S)-2,3,4,5-tetrahydro-3-butoxybenzo[b][1,4]oxazepin-7-yl)amino)pyrimidin-5-carboxamide] | < 0.01 µM | 0.01 to 0.1 µM | – | 0.01 to 0.1 µM
